Some results are limits rather than exact numbers.

The nature of data set [1]: Cytotoxicity against human Raji cells assessed as cell viability at 1000 molar ratio after 48 hrs. Format: cell-based. The conditions noted are these: read-out: Activity.
The nature of data set [2]: Cytotoxicity against human Raji cells assessed as cell viability at 10 molar ratio after 48 hrs. Format: cell-based. The conditions noted are these: read-out: Activity.
Data set [3] in a line: Cytotoxicity against human Raji cells assessed as cell viability at 100 molar ratio after 48 hrs. Format: cell-based. The conditions noted are these: read-out: Activity.
The subject of data set [4] is Raji. Kind of data set: Inhibition of TPA-induced EBV-early antigen activation in human Raji cells at 10 molar ratio after 48 hrs relative to TPA by indirect immunofluorescence technique; values are per cent of control. The settings on record: human gammaherpesvirus 4.
Data set [5] can be described thus: Cytotoxicity against human Raji cells assessed as cell viability at 500 molar ratio after 48 hrs. In kind it is cell-based. The settings on record: read-out: Activity.
The subject of data set [6] is Raji. As to the kind of experiment: Inhibition of TPA-induced EBV-early antigen activation in human Raji cells at 1000 molar ratio after 48 hrs relative to TPA by indirect immunofluorescence technique; values are per cent of control. The settings on record: human gammaherpesvirus 4.
The test system of data set [7] is Raji. As to the kind of experiment: Inhibition of TPA-induced EBV-early antigen activation in human Raji cells at 100 molar ratio after 48 hrs relative to TPA by indirect immunofluorescence technique; values are per cent of control. The conditions noted are these: human gammaherpesvirus 4.
Data set [8] concerns Raji. As to the kind of experiment: Inhibition of TPA-induced EBV-early antigen activation in human Raji cells at 500 molar ratio after 48 hrs relative to TPA by indirect immunofluorescence technique; values are per cent of control. The conditions noted are these: human gammaherpesvirus 4.

Regarding `CC(=O)O[C@@]1(C)C[C@@H](O)[C@]2(O)C=CO[C@@H](O[C@@H]3O[C@H](CO)[C@@H](O)[C@H](O)[C@H]3O)[C@@H]21`, in data set [1], the viability at 48 h, 1000 molar ratio came to 60%. Further, in data set [2], the viability at 48 h, 10 molar ratio is more than 80%. Besides, the viability at 48 h, 100 molar ratio in data set [3] was more than 80%. Also, the level, % of control in the data set with Raji [4] was 89.5%; with Raji [6] it was 0%; with Raji [7], 62.6%; with Raji [8], 19.9%. In addition, the viability at 48 h, 500 molar ratio in data set [5] was more than 80%.

Take `C[C@]1(O)C[C@@H](O)[C@]2(O)C=CO[C@@H](O[C@H]3O[C@H](CO)[C@@H](O)[C@H](O)[C@H]3O)[C@@H]21`: the level, % of control was determined as 100% in the data set with Raji [4], 0% in the data set with Raji [6], 80.1% with Raji [7] and 52.7% with Raji [8].

On to `CC(CO)c1cc2c(c(O)c1O[C@@H]1O[C@H](CO)[C@@H](O)[C@H](O)[C@H]1O)[C@@]1(C)CCC[C@](C)(CO[C@@H]3O[C@H](CO)[C@@H](O)[C@H](O)[C@H]3O)[C@@H]1CC2` (stereo partly specified) [AJUGASIDE A], for which, in data set [1], the viability at 48 h, 1000 molar ratio was determined as 60%. Besides, the viability at 48 h, 10 molar ratio in data set [2] was more than 80%. Further, in data set [3], the viability at 48 h, 100 molar ratio was more than 80%. In addition, the level, % of control stood at 91% in the data set with Raji [4], 0% with Raji [6], 68.3% in the data set with Raji [7] and 24.9% in the data set on Raji [8]. In addition, the viability at 48 h, 500 molar ratio in data set [5] was more than 80%.

For `COc1ccc(CCO[C@@H]2O[C@H](CO)[C@@H](O)[C@H](O[C@@H]3O[C@@H](C)[C@H](O)[C@@H](O)[C@H]3O)[C@H]2O)cc1O` [DARENDOSIDE A], the viability at 48 h, 1000 molar ratio in data set [1] is 70%. Besides, the viability at 48 h, 10 molar ratio in data set [2] is more than 80%. Further, the viability at 48 h, 100 molar ratio in data set [3] is more than 80%. For the same molecule, the level, % of control turned out to be 100% with Raji [4], 22.6% in the data set with Raji [6], 81.6% with Raji [7] and 53.8% in the data set with Raji [8]. Besides, in data set [5], the viability at 48 h, 500 molar ratio is more than 80%.

For the molecule `COc1ccc(CCO[C@@H]2O[C@H](CO)[C@@H](OC(=O)/C=C/c3ccc(O)c(OC)c3)[C@H](O[C@@H]3O[C@@H](C)[C@H](O)[C@@H](O)[C@H]3O[C@@H]3O[C@H](CO)[C@H](O)[C@H](O)[C@H]3O)[C@H]2O)cc1O` [GALACTOSYLMARTYNOSIDE], the viability at 48 h, 1000 molar ratio in data set [1] amounted to 60%. In data set [2], the viability at 48 h, 10 molar ratio is more than 80%. In data set [3], the viability at 48 h, 100 molar ratio was more than 80%. Besides, the level, % of control in the data set with Raji [4] was 98.5%; in the data set with Raji [6] it was 0%; in the data set with Raji [7] it was 76%; in the data set on Raji [8], 31.8%. The viability at 48 h, 500 molar ratio in data set [5] is more than 80%.

Consider `C[C@]1(O)C[C@@H](O)[C@]2(O)C=CO[C@@H](O[C@@H]3O[C@H](CO)[C@@H](O)[C@H](O)[C@H]3O)[C@@H]21` [HARPAGIDE], for which, in data set [1], the viability at 48 h, 1000 molar ratio was 60%. Further, in data set [2], the viability at 48 h, 10 molar ratio is more than 80%. Moreover, in data set [3], the viability at 48 h, 100 molar ratio was more than 80%. For the same molecule, the viability at 48 h, 500 molar ratio in data set [5] was more than 80%.

Turning to `COc1ccc(CCO[C@@H]2O[C@H](CO)[C@@H](OC(=O)/C=C/c3ccc(O)c(OC)c3)[C@H](O[C@@H]3O[C@@H](C)[C@H](O)[C@@H](O)[C@H]3O)[C@H]2O)cc1O` [MARTYNOSIDE A], the viability at 48 h, 1000 molar ratio in data set [1] was determined as 60%. In addition, the viability at 48 h, 10 molar ratio in data set [2] is more than 80%. In addition, the viability at 48 h, 100 molar ratio in data set [3] was more than 80%. Moreover, the level, % of control amounted to 89.4% in the data set on Raji [4], 0% in the data set on Raji [6], 66.4% in the data set with Raji [7] and 31.7% with Raji [8]. In addition, the viability at 48 h, 500 molar ratio in data set [5] was more than 80%.

On to `CC(=O)O[C@@]1(C)CC[C@]2(O)C=CO[C@@H](O[C@@H]3O[C@H](CO)[C@@H](O)[C@H](O)[C@H]3O)[C@@H]21` [REPTOSIDE], for which the viability at 48 h, 1000 molar ratio in data set [1] was determined as 60%. Also, the viability at 48 h, 10 molar ratio in data set [2] is more than 80%. Moreover, the viability at 48 h, 100 molar ratio in data set [3] was more than 80%. The level, % of control with Raji [4] was determined as 90.3%; with Raji [6], 0%; in the data set with Raji [7], 71.3%; with Raji [8], 22.4%. The viability at 48 h, 500 molar ratio in data set [5] is more than 80%.

These data come from ChEMBL document CHEMBL1150944, “New glycosides from ajuga decumbens” (J Nat Prod, 1998).
